How the values were obtained:
[1] = Displacement of 125I-[Sar1, Ile8] AngII from rat AT1 receptor expressed in COS1 cells; format: cell-based; settings: cos-1
Vasopressin V2 receptor = Vasopressin V2 receptor (Homo sapiens, UniProt P30518); assay: Displacement of [3H]AVP from human Vasopressin V2 receptor expressed in HeLa cells after 2 hrs by liquid scintillation counter; format: cell-based
[2] = biological target: Histamine H3 receptor (Homo sapiens) (UniProt Q9Y5N1); assay: Inverse agonist activity at human histamine H3 receptor expressed in SK-N-MC cells by beta-galactosidase reporter gene assay relative to histamine; format: cell-based
Melanocortin receptor 4 = Melanocortin receptor 4 (Homo sapiens, UniProt P32245); assay: Displacement of 125I-NDP-a-MSH from human Melanocortin receptor 4 after 2 hrs by TopCount microplate scintillation and luminescence counter
[3] = biological target: Histamine H3 receptor (Homo sapiens) (UniProt Q9Y5N1); assay: Partial agonist activity at human histamine H3 receptor expressed in SK-N-MC cells by beta-galactosidase reporter gene assay relative to histamine; format: cell-based
B2 bradykinin receptor = biological target: T1, B2 bradykinin receptor (Homo sapiens, UniProt P30411); assay: Displacement of [3H]BK from cloned human B2 bradykinin receptor expressed in CHO cells after 2 hrs by liquid scintillation counter; format: cell-based
T1 sequence (P30411 whole entry): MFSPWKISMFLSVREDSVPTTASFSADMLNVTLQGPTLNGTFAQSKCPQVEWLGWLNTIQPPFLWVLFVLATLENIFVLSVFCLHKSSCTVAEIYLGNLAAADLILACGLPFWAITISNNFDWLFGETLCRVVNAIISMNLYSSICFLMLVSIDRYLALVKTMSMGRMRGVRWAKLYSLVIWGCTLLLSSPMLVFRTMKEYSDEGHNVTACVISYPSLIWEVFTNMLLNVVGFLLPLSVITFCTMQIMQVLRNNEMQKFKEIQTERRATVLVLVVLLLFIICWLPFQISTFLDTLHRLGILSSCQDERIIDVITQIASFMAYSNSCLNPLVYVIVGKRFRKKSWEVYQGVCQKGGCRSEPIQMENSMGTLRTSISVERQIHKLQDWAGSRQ

[4] = biological target: T2, Type-2 angiotensin II receptor (Homo sapiens, UniProt P50052); assay: Binding affinity to angiotensin II receptor (unknown origin)
T2 sequence (P50052 whole entry): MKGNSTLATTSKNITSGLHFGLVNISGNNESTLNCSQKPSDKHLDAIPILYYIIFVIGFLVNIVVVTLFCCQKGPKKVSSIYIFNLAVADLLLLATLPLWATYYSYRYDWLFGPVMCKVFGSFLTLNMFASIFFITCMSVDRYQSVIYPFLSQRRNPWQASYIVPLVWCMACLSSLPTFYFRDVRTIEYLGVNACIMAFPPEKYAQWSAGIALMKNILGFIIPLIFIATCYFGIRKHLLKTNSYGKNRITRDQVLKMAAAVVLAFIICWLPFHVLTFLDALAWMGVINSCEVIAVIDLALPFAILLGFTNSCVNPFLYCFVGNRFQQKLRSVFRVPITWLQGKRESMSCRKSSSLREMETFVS

Histamine H3 receptor (Homo sapiens), sequence (Q9Y5N1 whole entry): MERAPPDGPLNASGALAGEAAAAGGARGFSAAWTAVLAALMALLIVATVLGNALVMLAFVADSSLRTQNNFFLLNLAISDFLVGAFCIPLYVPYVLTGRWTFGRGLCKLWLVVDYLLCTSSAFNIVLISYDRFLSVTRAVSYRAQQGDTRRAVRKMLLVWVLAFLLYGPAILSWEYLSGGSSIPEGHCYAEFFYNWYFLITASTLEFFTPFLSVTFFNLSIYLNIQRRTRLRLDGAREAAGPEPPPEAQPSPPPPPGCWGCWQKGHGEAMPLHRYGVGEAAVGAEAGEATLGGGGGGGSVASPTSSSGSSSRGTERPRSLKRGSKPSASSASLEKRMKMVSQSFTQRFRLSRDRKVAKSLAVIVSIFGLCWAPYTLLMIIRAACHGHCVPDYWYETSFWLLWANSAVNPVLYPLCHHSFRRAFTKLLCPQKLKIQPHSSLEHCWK
Melanocortin receptor 4, sequence (P32245 whole entry): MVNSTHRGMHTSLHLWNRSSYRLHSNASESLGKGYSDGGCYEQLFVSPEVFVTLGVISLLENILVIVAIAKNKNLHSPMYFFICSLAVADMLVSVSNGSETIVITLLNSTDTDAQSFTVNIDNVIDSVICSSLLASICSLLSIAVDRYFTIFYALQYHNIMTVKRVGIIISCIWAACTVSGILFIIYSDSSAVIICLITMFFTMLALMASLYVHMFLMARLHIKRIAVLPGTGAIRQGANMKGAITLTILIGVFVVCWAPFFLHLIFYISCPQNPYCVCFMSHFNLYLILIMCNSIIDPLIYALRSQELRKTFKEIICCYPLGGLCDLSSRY
Vasopressin V2 receptor, sequence (P30518 whole entry): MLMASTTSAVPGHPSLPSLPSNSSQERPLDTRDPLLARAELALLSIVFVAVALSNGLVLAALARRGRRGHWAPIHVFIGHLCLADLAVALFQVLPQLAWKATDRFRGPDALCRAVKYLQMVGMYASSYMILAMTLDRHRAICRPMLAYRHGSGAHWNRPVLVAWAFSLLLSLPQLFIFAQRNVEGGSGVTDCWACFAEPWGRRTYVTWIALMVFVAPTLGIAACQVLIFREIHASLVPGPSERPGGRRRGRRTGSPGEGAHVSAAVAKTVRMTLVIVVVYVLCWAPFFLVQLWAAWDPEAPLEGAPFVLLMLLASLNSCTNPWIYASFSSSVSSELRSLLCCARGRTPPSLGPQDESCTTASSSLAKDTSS

Compound `CCCc1nc(C(C)(C)O)c(C(=O)O)n1Cc1ccc(-c2ccccc2-c2nnn[nH]2)cc1` [OLMESARTAN] has a Kd [1] of 2.3 nM.

`Cc1cc(N)ccc1C(=O)N1CCCCc2cc(Cl)ccc21` gave an IC50 (Vasopressin V2 receptor) of 18 nM.

Work on `c1nc(CCCC2CCCNC2)c[nH]1` (stereo not drawn) yielded an Intrinsic activity [2] of 29%.

For `CCCc1nc(C(C)(C)O)c(C(=O)O)n1Cc1ccc(-c2cc(Cc3ccc(O)cc3)ccc2-c2nnn[nH]2)cc1`, the Kd [1] was 21 nM.

For `CCN(C(C)=O)C(C)c1ccccc1N1CCN(C(=O)[C@H](CC(=O)N2CCN(C(=O)OC(C)(C)C)CC2)Cc2ccc(Cl)cc2)CC1` (stereo partly drawn), the Ki (Melanocortin receptor 4) was 2 nM.

For `CCN(C(C)=O)C(C)c1ccccc1N1CCN(C(=O)[C@H](CC(=O)NC2CCC2)Cc2ccc(Cl)cc2)CC1` (stereo partly drawn), the Ki (Melanocortin receptor 4) was 6 nM.

Compound `CCCc1nc(C(C)(C)O)c(C(N)=O)n1Cc1ccc(-c2cc(Cc3ccc(O)cc3)ccc2-c2nnn[nH]2)cc1` has a Kd [1] of 48 nM.

`c1nc(CCC2CCNCC2)c[nH]1` showed an Intrinsic activity [3] of 60%.

`Cc1cc(OCc2ccccn2)c2cccc(OCc3c(Cl)ccc(N(C)C(=O)CNC(=O)/C=C/c4ccc(/C=C/c5ccncc5)nc4)c3Cl)c2n1` gave an IC50 (B2 bradykinin receptor) of 0.36 nM.

Work on `c1nc(CCC2CCCNC2)c[nH]1` (stereo not drawn) yielded an Intrinsic activity [3] of 34%.

`CCCCOC(=O)NS(=O)(=O)c1ccc(CC(C)C)cc1-c1ccc(Cn2c(CC)nc3c(C)cc(C)nc32)cc1` gave a Ki [4] of 2.1 nM.

`CCCc1nc(C(C)(C)O)c(C(N)=O)n1Cc1ccc(-c2ccccc2-c2nnn[nH]2)cc1` showed a Kd [1] of 0.8 nM.

In the case of `CCCCOC(=O)NS(=O)(=O)c1ccc(CCC)cc1-c1ccc(Cn2c(CC)nc3c(C)cc(C)nc32)cc1`, the Ki [4] is reported as 1.5 nM.
